Results on 2 compounds are retold here after patent publication US6337333B1, “Method of treating autoimmune disease with fludarabine-5′-monophosphate” (priority 1992, dated 2002).

Each structure is given as a SMILES string.

Holding throughout (assay type): cell-based, human
In one assay the test system is T and B lymphocytes. In words: Mitogen response of PBMC enriched for T or B lymphocytes continuously cultured with drug. The settings on record: cultures continuously exposed to drug. Here is the method:
In FIG. 2, peripheral blood mononuclear cells enriched for either T (top) or B (bottom) lymphocytes were continuously cultured with the appropriate concentrations of drug for 3 or 6 days, respectively. The mitogen PHA-P was used at 5 μg/ml and the mitogen PWM was used at 1 μg/ml. The wells were pulsed and harvested as described above.
The adenosine analog 2-chlorodeoxyadenosine (2CDA) has also been reported to have significant cytotoxic and immunosuppressive effects on normal lymphocytes (10,13).

A further assay concerns IgM production. In words: Cumulative IgM production in SAC + rIL-2 cultures, EIA. The settings on record: for accumulation of IgM: 5 and 10 day SAC rIL-2 cultures, preliminary studies. Here is the method:
In FIG. 5, peripheral blood mononuclear cells (PBMC) enriched for B lymphocytes (BC89; 60% CD19, 59% CD20, 8% CD3) were continuously cultured at 5×10^5/ml and stimulated with Staphylococcus aureus Cowan I (SAC) plus interleukin 2 (IL-2) (50 U/ml) in the presence of 1.0 μg/ml of FLP. Recombinant IL-6 was added to 50 U/ml. After the culture period, the supernatants were harvested and assayed for huIgM by EIA. Results shown are from 1 representative experiment of 5 different experiments conducted with 5 different sources of leukocyte preparations. […]
(§1) In FIG. 7, peripheral blood mononuclear cells (PBMC) enriched for B lymphocytes (BC92; 35% CD19, 33% CD20, 35% CD3) were continuously cultured for 5 days in either medium alone, Staphylococcus aureus Cowan I (SAC) plus interleukin 2 (IL-2) (50 U/ml), or SAC plus IL-2 in the presence of various concentrations of FLP or 2-chlorodeoxyadenosine (2CDA). After 5 days of culture, the supernatants were harvested and serial dilutions of supernatant assayed for huIgM and huIgG by EIA. The presence of IgM rheumatoid factor (IgM-RF) was determined by EIA using the Vectastain Biotin-Streptavidin amplification system. Results are reported as O.D. 405 nm units. […] The results shown are from 1 representative experiment of 4 separate experiments conducted with 4 different sources of packed leukocytes.
(§2) In FIG. 8, peripheral blood mononuclear cells (PBMC) enriched for B lymphocytes (BC92, 35% CD19, 33% CD20, 35% CD3) were continuously cultured for 10 days in either medium alone, Staphylococcus aureus Cowan I (SAC) plus interleukin 2 (IL-2) (50 U/ml), or SAC plus IL-2 in the presence of various concentrations of FLP or 2CDA. At the end of the culture period, the supernatants were harvested and serial dilutions assayed for huIgM, huIgG, and IgM-RF by EIA. The cells were phenotyped by flowcytometry. Results are reported as O.D. 405 nm units. […] The results shown are from 1 experiment representative of 3 separate experiments conducted with 3 different sources of packed leukocytes.
(§3) In FIG. 9, peripheral blood mononuclear cells (PBMC) (BC93; 22% CD19, 20% CD20, 78% CD3) were continuously cultured for 5 days in either medium alone, Staphylococcus aureus Cowan I (SAC) plus interleukin 2 (IL-2) (50 U/ml) or 20% T cell conditioned medium (Tcm) in the presence of various concentrations of FLP. At the end of the 5 day culture period, the supernatants were harvested and serial dilutions assayed for huIgM, huIgG, and IgM-RF by EIA. The results are reported as O.D. 405 nm units. […] The results shown are from one representative experiment.
Immulon-2 (Dynatek Laboratories, #011-010-3450, Chantilly, Va.) flat-bottom 96 well microtiter plates were coated with 100 μl/well of a 2 μg/ml solution of goat F(ab′)2 anti-HuIgM (μ chain, CALTAG #H15100, So. San Francisco, Calif.) or goat F(ab′)2 anti-HuIgG (Fc sp., CALTAG #H10100) in 0.1 M sodium carbonate buffer, pH 9.6 overnight at 4° C. Uncoated wells were incubated with the carbonate buffer alone. The plates were rinsed and then incubated with 100 μl/well of 0.1% BSA/PBS for 1 hr at RT.

A further assay has as its system IgM-RF production. In words: Cumulative IgM-RF production in SAC + rIL-2 cultures, EIA. The settings on record: for effect on measurable IgM-RF: FIG. 7C; for accumulation of IgM-RF: 5 and 10 day SAC rIL-2 cultures, preliminary studies.
Source text: as §1, §2, §3
The procedure to determine amounts of IgM-RF in culture supernatants was a modification of the methodology described above. Briefly, plates were coated with 100 μl/well of a 2.4 μg/ml solution of human IgG Fc fragments (Jackson ImmunoResearch, Chrompure #009-000-008) in 0.1 M sodium carbonate, pH 9.6 overnight at 4° C. The wells were blocked with 0.1% BSA/PBS for 1 hr at RT, and then serial dilutions of culture supernatant were cultured at 100 μl/well for 18-48 hrs at RT. A Vectastain Human IgM ABC-AP kit (Vector Laboratories, #AK-5009, Burlingame, Calif.) was used to develop the plates. […] Results are reported as O.D. units at 405 nm.

Setting [1] is: one microgram per ml, 5 days, FIG. 7A.

As for `Nc1nc(F)nc2c1ncn2[C@@H]1O[C@H](COP(=O)(O)O)[C@@H](O)[C@@H]1O` [FLP, fludarabine-5′-monophosphate], the “level of drug that suppresses the mitogen response” value with T and B lymphocytes was determined as 0.5 µg/mL. The “effect on IgM accumulation” value is reported as “minimal effect” in the assay with IgM production (0.1 μg/ml, 10 days, FIG. 8A); “block any measurable IgM accumulation” with IgM production (5 μg/ml, 5 days, FIG. 7A); “reduce” in the assay with IgM production (0.1 and 0.5 μg/ml, PBMC, 5 days, cultures containing rIL-2 or 20% T cell conditioned medium, FIG. 9A). The “reduction of IgM accumulation” value in the assay with IgM production (1 μg, 10 days, FIG. 8A) was determined as 80%; in the assay with IgM production (5 μg, 10 days, FIG. 8A), 98%. Further, the “detectable IgM in supernatants” value with IgM production (1.0 μg/ml, 5 day cultures, FIG. 5) is given as “background levels”. In addition, in the assay on IgM production, the “accumulation of IgM” value was “dose-related decrease”. The “effect on IgM production” value was “minimal effect” in the assay with IgM production (one hundred nanograms per ml, 5 days, FIG. 7A) and “intermediate effect” with IgM production (setting [1]). Besides, the IgM-RF production in the assay on IgM-RF production (0.1 μg/ml, 10 days, FIG. 8C) was 50 % of control. The “effect on measurable IgM-RF” value in the assay on IgM-RF production (1 μg/ml, 5 days) was “reduce the measurable IgM-RF”; in the assay on IgM-RF production (5 μg/ml, 5 days) it was “reduce the measurable IgM-RF”. Besides, in the assay with IgM-RF production (5 μg, 10 days, FIG. 8C), the “level of measurable IgM-RF” value was “below the medium control levels”. In the assay with IgM-RF production (0.1 and 0.5 μg/ml, PBMC, 5 days, cultures containing rIL-2 or 20% T cell conditioned medium, FIG. 9C), the “effect on IgM-RF accumulation” value is reported as “reduce”. Also, the “accumulation of IgM-RF” value in the assay on IgM-RF production is on record as “dose-related decrease”.
In the case of `Nc1nc(Cl)nc2c1ncn2[C@H]1C[C@H](O)[C@@H](CO)O1` [2CDA, 2-chlorodeoxyadenosine], the “level of drug that suppresses the mitogen response” value in the assay on T and B lymphocytes was found to be 0.5 µg/mL. The “accumulation of IgM” value with IgM production is “dose-related decrease”. The “effect on IgM production” value in the assay with IgM production (setting [1]) is on record as “block”. Moreover, the “effect on IgM accumulation” value with IgM production (one microgram per ml, 10 days) is recorded as “block the accumulation”. For the same compound, the “effect on measurable IgM-RF” value with IgM-RF production (1 μg/ml, 5 days) is reported as “less effect”. In the assay with IgM-RF production (1 μg/ml, 10 days), the “effect on IgM-RF accumulation compared with FLP” value is given as “characteristics similar to FLP”. Besides, the “accumulation of IgM-RF” value in the assay with IgM-RF production is “dose-related decrease”.
